Experimental data: ChEMBL document CHEMBL3792292, “Development of a potent and selective FLT3 kinase inhibitor by systematic expansion of a non-selective fragment-screening hit” (Bioorg Med Chem Lett, 2016)

Columns and labels:
[1] = molecular target: Tyrosine-protein kinase Lck (Homo sapiens) (UniProt P06239); test: Inhibition of full length human N-terminal GST-tagged LCK (1 to 500 residues) expressed in baculovirus expression system using fluorescence labelled srctide as substrate at 50 times IC50 by electrophoretic mobility shift assay relative to control
[2] = molecular target: Rho-associated protein kinase 1 (Homo sapiens) (UniProt Q13464); test: Inhibition of human N-terminal GST-tagged ROCK1 catalytic domain (1 to 477 residues) expressed in baculovirus expression system using fluorescence labelled LIMKtide substrate at 50 times IC50 by electrophoretic mobility shift assay relative to control
[3] = molecular target: T1, Ephrin type-B receptor 4 (Homo sapiens) (UniProt P54760); test: Inhibition of human N-terminal GST-tagged EPHB4 cytoplasmic domain (577 to 987 residues) expressed in baculovirus expression system using fluorescence labelled Blk/Lyntide as substrate at 50 times IC50 by electrophoretic mobility shift assay relative to control
T1 sequence (whole entry): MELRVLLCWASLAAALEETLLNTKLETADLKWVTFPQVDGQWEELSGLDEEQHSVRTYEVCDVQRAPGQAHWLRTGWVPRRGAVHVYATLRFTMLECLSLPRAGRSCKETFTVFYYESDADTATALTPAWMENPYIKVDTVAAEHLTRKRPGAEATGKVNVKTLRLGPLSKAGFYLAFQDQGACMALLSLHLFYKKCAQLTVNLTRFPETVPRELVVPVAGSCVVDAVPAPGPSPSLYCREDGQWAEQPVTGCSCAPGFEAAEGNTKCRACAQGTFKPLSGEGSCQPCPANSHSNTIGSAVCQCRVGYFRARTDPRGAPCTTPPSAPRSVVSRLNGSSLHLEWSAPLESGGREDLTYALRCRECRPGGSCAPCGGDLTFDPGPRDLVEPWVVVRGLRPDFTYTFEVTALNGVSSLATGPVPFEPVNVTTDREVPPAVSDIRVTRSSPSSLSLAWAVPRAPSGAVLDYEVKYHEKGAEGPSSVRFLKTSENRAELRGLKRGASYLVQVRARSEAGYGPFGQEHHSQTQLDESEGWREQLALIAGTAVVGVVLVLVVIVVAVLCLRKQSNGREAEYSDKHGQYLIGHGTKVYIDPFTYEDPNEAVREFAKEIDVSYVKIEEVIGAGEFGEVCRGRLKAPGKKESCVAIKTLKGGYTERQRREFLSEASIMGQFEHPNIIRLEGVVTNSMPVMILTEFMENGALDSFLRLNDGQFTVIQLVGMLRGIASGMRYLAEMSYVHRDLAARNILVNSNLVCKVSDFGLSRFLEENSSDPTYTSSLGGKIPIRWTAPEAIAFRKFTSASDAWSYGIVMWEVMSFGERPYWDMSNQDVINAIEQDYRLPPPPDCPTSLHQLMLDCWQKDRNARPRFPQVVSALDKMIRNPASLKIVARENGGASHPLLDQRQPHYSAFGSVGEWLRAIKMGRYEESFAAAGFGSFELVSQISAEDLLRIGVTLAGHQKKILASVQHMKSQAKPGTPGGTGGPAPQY

[4] = molecular target: AMP-activated protein kinase, AMPK (Homo sapiens) (UniProt P54646+O43741+P54619+Q9UGJ0+Q9Y478+Q13131+Q9UGI9); test: Inhibition of human N-terminal GST-tagged AMPKalpha1 (1 to 550 residues)/beta1 (1 to 270 residues)/gamma1 (1 to 331 residues) expressed in baculovirus expression system using fluorescence labelled SAMS peptide substrate at 50 times IC50 by electrophoretic mobility shift assay relative to control
[5] = molecular target: Mitogen-activated protein kinase kinase kinase kinase 4 (Homo sapiens, UniProt O95819); test: Inhibition of human N-terminal GST-tagged HGK catalytic domain (1 to 328 residues) expressed in baculovirus expression system using fluorescence labelled moesin-derived peptide substrate at 50 times IC50 by electrophoretic mobility shift assay relative to control
[6] = molecular target: T2, Calcium/calmodulin-dependent protein kinase type IV (Homo sapiens) (UniProt Q16566); test: Inhibition of full length human N-terminal GST-tagged CAMK4 (1 to 473 residues) expressed in baculovirus expression system using fluorescence labelled GS peptide as substrate at 50 times IC50 by electrophoretic mobility shift assay relative to control
T2 sequence (whole entry): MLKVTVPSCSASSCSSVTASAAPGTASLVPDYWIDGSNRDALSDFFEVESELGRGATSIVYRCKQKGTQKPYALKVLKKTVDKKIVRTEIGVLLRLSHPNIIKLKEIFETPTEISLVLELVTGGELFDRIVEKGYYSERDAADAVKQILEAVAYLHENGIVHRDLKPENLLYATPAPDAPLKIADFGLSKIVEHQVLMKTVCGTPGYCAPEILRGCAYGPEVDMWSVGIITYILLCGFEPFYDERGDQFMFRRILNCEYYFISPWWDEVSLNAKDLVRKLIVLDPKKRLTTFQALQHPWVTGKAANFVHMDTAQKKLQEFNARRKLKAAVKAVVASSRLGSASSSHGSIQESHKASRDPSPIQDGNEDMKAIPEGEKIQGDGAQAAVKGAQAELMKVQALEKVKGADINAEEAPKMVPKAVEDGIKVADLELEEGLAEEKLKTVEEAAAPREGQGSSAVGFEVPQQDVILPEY

[7] = molecular target: Dual specificity tyrosine-phosphorylation-regulated kinase 1B (Homo sapiens) (UniProt Q9Y463); test: Inhibition of full length human N-terminal GST-tagged DYRK1B (1 to 629 residues) expressed in baculovirus expression system using fluorescence labelled DYRKtide-F as substrate at 50 times IC50 by electrophoretic mobility shift assay relative to control
[8] = molecular target: T3, Interleukin-1 receptor-associated kinase 4 (Homo sapiens) (UniProt Q9NWZ3); test: Inhibition of full length human N-terminal GST-tagged IRAK4 (1 to 460 residues) expressed in baculovirus expression system using fluorescence labelled IRAK1 peptide substrate at 50 times IC50 by electrophoretic mobility shift assay relative to control
T3 sequence (whole entry): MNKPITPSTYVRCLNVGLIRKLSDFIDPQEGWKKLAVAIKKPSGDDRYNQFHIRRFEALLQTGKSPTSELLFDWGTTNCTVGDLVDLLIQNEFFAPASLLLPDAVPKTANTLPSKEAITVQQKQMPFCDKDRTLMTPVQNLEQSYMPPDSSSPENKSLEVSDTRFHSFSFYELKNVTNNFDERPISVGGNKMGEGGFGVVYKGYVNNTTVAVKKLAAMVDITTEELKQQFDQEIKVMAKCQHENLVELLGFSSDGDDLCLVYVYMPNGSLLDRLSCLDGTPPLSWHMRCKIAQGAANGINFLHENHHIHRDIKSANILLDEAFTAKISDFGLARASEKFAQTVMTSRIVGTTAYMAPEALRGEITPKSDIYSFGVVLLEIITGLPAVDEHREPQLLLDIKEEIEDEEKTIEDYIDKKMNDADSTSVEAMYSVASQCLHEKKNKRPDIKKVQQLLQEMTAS

Sequence of Mitogen-activated protein kinase kinase kinase kinase 4 (O95819 2-1239 limits assumed): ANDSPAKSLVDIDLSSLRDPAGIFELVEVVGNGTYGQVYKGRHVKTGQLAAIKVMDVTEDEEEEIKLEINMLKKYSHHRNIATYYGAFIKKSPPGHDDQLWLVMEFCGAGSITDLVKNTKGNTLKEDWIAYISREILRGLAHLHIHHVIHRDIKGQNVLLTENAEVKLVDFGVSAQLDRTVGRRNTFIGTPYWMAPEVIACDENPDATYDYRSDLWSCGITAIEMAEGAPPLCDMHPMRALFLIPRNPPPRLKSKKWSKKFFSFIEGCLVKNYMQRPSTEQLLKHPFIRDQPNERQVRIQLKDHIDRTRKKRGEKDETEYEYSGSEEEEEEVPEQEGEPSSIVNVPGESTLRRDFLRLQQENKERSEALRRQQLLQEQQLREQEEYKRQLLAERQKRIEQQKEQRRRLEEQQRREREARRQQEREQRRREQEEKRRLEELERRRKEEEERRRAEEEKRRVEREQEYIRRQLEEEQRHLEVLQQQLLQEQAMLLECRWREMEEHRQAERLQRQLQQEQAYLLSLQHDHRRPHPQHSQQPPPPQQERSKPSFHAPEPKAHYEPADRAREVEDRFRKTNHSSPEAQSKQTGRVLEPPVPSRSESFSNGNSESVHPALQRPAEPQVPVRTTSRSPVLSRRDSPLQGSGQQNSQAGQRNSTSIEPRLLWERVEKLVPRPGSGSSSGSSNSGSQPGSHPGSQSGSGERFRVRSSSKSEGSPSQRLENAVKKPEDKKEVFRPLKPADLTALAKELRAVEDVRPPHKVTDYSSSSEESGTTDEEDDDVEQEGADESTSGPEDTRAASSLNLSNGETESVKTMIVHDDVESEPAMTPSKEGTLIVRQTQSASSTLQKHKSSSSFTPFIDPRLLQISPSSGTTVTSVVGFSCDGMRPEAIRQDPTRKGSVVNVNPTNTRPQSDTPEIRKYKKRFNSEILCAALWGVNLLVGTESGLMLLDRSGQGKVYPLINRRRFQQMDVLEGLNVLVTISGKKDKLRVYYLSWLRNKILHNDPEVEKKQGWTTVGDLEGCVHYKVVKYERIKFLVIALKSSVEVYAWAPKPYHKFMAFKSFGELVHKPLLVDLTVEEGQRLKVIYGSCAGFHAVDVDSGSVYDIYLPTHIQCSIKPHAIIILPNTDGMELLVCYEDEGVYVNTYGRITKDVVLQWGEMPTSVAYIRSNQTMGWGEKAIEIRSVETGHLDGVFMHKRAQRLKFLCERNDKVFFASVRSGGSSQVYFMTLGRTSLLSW
Sequence of Rho-associated protein kinase 1 (Homo sapiens) (Q13464 2-1354 limits assumed): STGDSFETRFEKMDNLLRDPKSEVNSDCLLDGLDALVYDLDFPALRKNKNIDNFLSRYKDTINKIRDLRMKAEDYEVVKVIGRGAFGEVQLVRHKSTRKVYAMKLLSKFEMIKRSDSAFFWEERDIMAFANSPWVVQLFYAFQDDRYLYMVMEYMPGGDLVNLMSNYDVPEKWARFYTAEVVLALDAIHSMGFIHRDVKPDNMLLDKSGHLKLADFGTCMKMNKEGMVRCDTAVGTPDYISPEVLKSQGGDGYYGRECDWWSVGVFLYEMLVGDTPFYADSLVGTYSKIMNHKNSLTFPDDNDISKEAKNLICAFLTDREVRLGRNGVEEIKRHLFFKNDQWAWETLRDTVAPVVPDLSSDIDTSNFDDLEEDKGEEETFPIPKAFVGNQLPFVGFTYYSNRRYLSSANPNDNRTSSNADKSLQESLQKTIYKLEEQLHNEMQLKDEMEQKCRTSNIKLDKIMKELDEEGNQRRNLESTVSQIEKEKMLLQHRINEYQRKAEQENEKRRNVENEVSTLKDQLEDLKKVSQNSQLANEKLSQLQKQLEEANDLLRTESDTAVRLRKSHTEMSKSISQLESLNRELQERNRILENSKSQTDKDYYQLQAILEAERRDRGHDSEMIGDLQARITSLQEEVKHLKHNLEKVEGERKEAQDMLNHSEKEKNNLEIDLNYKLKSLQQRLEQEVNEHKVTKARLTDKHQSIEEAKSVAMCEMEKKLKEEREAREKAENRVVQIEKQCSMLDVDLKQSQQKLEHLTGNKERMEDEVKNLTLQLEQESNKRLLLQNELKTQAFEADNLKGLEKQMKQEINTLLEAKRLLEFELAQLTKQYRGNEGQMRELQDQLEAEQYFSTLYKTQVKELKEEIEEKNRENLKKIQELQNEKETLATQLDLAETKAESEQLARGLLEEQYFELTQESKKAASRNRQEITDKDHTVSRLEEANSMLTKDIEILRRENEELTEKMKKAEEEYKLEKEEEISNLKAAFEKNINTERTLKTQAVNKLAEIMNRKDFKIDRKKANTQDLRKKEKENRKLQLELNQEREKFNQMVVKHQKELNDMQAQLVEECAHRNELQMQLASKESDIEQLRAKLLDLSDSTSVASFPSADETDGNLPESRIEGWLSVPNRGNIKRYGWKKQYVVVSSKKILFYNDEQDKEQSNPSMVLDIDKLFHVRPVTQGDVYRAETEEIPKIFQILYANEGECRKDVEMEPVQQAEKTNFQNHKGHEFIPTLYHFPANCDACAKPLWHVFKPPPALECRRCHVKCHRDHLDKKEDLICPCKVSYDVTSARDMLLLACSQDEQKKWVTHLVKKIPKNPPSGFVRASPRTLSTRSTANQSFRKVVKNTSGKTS
Sequence of Dual specificity tyrosine-phosphorylation-regulated kinase 1B (Homo sapiens) (Q9Y463 whole entry, looked up, the tested form may be a part): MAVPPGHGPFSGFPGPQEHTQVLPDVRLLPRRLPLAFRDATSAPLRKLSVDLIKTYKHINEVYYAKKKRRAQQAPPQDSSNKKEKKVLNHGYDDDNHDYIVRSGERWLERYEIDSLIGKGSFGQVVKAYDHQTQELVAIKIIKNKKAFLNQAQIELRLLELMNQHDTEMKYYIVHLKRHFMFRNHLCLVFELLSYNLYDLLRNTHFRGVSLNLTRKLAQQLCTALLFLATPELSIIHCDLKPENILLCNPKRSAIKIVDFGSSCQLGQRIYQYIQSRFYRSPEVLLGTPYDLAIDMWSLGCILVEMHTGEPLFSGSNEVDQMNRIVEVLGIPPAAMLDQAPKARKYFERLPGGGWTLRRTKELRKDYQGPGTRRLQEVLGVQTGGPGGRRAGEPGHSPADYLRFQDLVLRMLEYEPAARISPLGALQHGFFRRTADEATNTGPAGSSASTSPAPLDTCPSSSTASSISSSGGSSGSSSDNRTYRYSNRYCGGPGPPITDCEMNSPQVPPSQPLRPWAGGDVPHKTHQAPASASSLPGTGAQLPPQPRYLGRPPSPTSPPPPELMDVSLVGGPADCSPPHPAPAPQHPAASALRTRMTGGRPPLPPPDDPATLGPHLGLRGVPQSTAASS
Sequence of Tyrosine-protein kinase Lck (Homo sapiens) (P06239 2-509 limits assumed): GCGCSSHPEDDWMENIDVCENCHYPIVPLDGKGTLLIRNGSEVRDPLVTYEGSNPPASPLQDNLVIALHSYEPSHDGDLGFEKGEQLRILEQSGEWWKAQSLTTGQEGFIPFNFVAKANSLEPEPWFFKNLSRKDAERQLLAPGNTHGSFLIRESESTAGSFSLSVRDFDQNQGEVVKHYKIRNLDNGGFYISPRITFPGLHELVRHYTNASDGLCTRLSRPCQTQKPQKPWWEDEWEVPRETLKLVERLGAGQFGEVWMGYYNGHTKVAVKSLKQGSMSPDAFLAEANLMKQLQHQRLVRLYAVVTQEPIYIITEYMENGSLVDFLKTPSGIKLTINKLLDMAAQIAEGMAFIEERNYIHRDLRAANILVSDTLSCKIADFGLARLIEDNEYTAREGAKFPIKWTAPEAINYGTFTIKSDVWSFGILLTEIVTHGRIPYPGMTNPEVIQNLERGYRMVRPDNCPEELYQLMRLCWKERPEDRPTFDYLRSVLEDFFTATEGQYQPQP

O=C(Nc1ccc(CN2CCN(c3ccccc3)CC2)cc1)c1n[nH]c2ccccc12
inhibition [1]: 1.8%
inhibition [2]: 1.9%
inhibition [3]: -0.4%
inhibition [4]: 9.2%
inhibition [5]: 62.8%
inhibition [6]: 0.8%
inhibition [7]: 12.7%
inhibition [8]: -1.9%

O=C(Nc1ccc(C(=O)N2CCN(c3ccccc3)CC2)cc1)c1n[nH]c2ccccc12
inhibition [1]: 1.8%
inhibition [2]: 6.9%
inhibition [3]: -1.2%
inhibition [4]: 18%
inhibition [5]: 90.6%
inhibition [6]: 2.7%
inhibition [7]: 29.4%
inhibition [8]: 2.6%

O=C(Nc1ccccc1)c1n[nH]c2ccccc12
inhibition [1]: 5.6%
inhibition [2]: 3.3%
inhibition [3]: 0.4%
inhibition [4]: 46%
inhibition [5]: 92.5%
inhibition [6]: 21.2%
inhibition [7]: 53.6%
inhibition [8]: 19.7%
